Experiment [1] is described as follows: Antiangiogenic activity against swiss albino mouse EAT cells assessed as decrease in body weight at 100 mg/kg after 6 days. The class given is functional. On the set-up: scale not given: the % may be the effect or the level left.
The subject of experiment [2] is EAT. As to the kind of experiment: Antiangiogenic activity against EAT cells bearing Swiss Albino mouse assessed as microvasculature at 100 mg/kg after 6 days by peritoneal angiogenesis assay. In kind it is functional, organism-based. On the set-up: dose 100 mg/kg.
The subject of experiment [3] is EAT. Nature of the experiment: Antiangiogenic activity against EAT cells bearing Swiss Albino mouse assessed as cell number at 100 mg/kg after 12 days by trypan blue dye exclusion method. In kind it is functional, organism-based. Details: dose 100 mg/kg.
Experiment [4] deals with EAT. As to the kind of experiment: Antiangiogenic activity against EAT cells bearing Swiss Albino mouse by CAM assay. In kind it is functional.
In experiment [5] the test system is EAT. As to the kind of experiment: Antiangiogenic activity against EAT cells bearing Swiss Albino mouse assessed as ascites volume at 100 mg/kg after 12 days. In kind it is functional, organism-based. On the set-up: dose 100 mg/kg.
Experiment [6] has as its system EAT. Nature of the experiment: Inhibition of VEGF secretion in EAT cells bearing Swiss Albino mouse at 100 mg/kg after 6 days by VEGF ELISA. The class given is functional, organism-based. On the set-up: dose 100 mg/kg. A general note: ELISA stands for enzyme-linked immunosorbent assay.

The source made the active and inactive calls. No cut-off for these calls is given here.

`CCOc1ccccc1C(=O)Nc1ccccc1Oc1ccc(Cl)cc1NC(=O)c1ccccc1OCC`: in experiment [1], the Activity is listed as 65%. The outcome with EAT [2], in the experiment on EAT [3], in the experiment with EAT [4], in the experiment with EAT [5] and with EAT [6] was Active.

Source of the values: ChEMBL document CHEMBL1147916, “2-(2-(2-Ethoxybenzoylamino)-4-chlorophenoxy)-N-(2-ethoxybenzoyl)benzamine inhibits EAT cell induced angiogenesis by down regulation of VEGF secretion” (2007).
